Results from patent US10611740B2, “Aryl dihydro-2H-benzo[b][1,4]oxazine sulfonamide and related compounds for use as agonists of RORγ and the treatment of disease” (Lycera Corporation, priority 2015, dated 2020).

Key:
[1] = molecular target: T1, RORγ-LBD (Homo sapiens, UniProt P51449); experiment: RORγ-Ligand Binding Domain (LBD) TR-FRET Assay; format: biochemical;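 for TR-FRET Assay Max Response: 665/615 nm ratio relative to signal without ursolic acid or compound set at 100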
T1 construct: made in house; host or cells: SF9 cells (baculovirus)
T1 sequence (P51449 269-508 limits assumed): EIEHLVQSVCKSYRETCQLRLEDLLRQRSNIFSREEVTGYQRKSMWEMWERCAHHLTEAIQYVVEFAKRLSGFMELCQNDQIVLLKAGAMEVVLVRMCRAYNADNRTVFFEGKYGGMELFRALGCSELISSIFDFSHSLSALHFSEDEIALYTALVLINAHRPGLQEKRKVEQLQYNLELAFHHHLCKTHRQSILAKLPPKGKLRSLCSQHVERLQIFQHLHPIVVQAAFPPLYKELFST
How it was run: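 His-tagged RORγ-LBD from SF9 baculovirus lysate, ~3 nM final, in 50 mM Tris pH 7.0, 50 mM KCl, 1 mM EDTA, 0.1 mM DTT, 0.01% BSA. Biotinylated SRC1 LXXLL peptide at 200 nM final with 2 μM ursolic acid; TR-FRET read-out, 1% DMSO final.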

[2] = molecular target: T2, Gal4-RORγ-LBD (Homo sapiens, UniProt P51449); experiment: Gal4-RORγ Luciferase Reporter Assay in HEK-293T Cells; format: cell-based; conditions: HEK-293 cells, luciferase reporter, with 2 μM ursolic acid
T2 construct: expressed in transfected cells; host or cells: HEK-293 cells (pcDNA3.1neo plasmid)
T2 sequence (P51449 269-508 limits assumed): T1 sequence (P51449 269-508 limits assumed)
How it was run: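 HEK-293 cells were transiently co-transfected with Gal4-RORγ-LBD and pGL4.31 Gal4-luciferase, with ursolic acid added at 2 μM final. Compounds were incubated overnight at 37° C. in 0.2% DMSO and luminescence read with One-Glo. Max Response is the upper plateau of a 4-parameter logistic fit, with signal lacking ursolic acid or compound set to 100.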

Structure (SMILES): CC(C)c1cccc(S(=O)(=O)N2C[C@H](CCc3n[nH]c(=O)o3)Oc3ccc(-c4cc(F)ccc4F)cc32)c1 [Compound 28D, (S)-5-(2-(6-(2,5-difluorophenyl)-4-((3-isopropylphenyl)sulfonyl)-3,4-dihydro-2H-benzo[b][1,4]-oxazin-2-yl)ethyl)-1,3,4-oxadiazol-2(3H)-one]
- EC50 [1]: < 500 nM
- TR-FRET Assay Max Response [1]: **** (The symbol “****” indicates a value greater than 200)
- EC50 [2]: < 500 nM
- Gal4-RORγ Assay Max Response [2]: ** (The symbol “**” indicates a value in the range of greater than 90 to 150)

Structure (SMILES): COc1cccc(-c2ccc3c(c2)N(S(=O)(=O)c2cccc(C(F)(F)F)c2)C[C@H](CCc2n[nH]c(=O)o2)O3)c1 [Compound 28E, (S)-5-(2-(6-(3-methoxyphenyl)-4-((3-(trifluoromethyl)phenyl)-sulfonyl)-3,4-dihydro-2H-benzo[b][1,4]oxazin-2-yl)ethyl)-1,3,4-oxadiazol-2(3H)-one]
- EC50 [1]: < 500 nM
- TR-FRET Assay Max Response [1]: **** (The symbol “****” indicates a value greater than 200)
- EC50 [2]: < 500 nM
- Gal4-RORγ Assay Max Response [2]: ** (The symbol “**” indicates a value in the range of greater than 90 to 150)

Structure (SMILES): CC(C)c1cccc(S(=O)(=O)N2C[C@H](CCc3n[nH]c(=O)o3)Oc3ccc(-c4cccc(N(C)C)n4)cc32)c1 [Compound 28F, (S)-5-(2-(6-(6-(dimethylamino)-pyridin-2-yl)-4-((3-isopropyl-phenyl)sulfonyl)-3,4-dihydro-2H-benzo[b][1,4]oxazin-2-yl)ethyl)-1,3,4-oxadiazol-2(3H)-one]
- EC50 [1]: < 500 nM
- TR-FRET Assay Max Response [1]: **** (The symbol “****” indicates a value greater than 200)
- EC50 [2]: < 500 nM
- Gal4-RORγ Assay Max Response [2]: ** (The symbol “**” indicates a value in the range of greater than 90 to 150)

Structure (SMILES): COc1cc(F)cc(-c2ccc3c(c2)N(S(=O)(=O)c2cccc(C(F)(F)F)c2)C[C@H](CCc2n[nH]c(=O)o2)O3)c1F [Compound 28G, (S)-5-(2-(6-(2,5-difluoro-3-methoxyphenyl)-4-((3-(trifluoromethyl)phenyl)sulfonyl)-3,4-dihydro-2H-benzo[b][1,4]-oxazin-2-yl)ethyl)-1,3,4-oxadiazol-2(3H)-one]
- EC50 [1]: < 500 nM
- TR-FRET Assay Max Response [1]: **** (The symbol “****” indicates a value greater than 200)
- EC50 [2]: < 500 nM
- Gal4-RORγ Assay Max Response [2]: ** (The symbol “**” indicates a value in the range of greater than 90 to 150)

Structure (SMILES): COc1cc(-c2ccc3c(c2)N(S(=O)(=O)c2cccc(C(F)(F)F)c2)C[C@H](CCc2n[nH]c(=O)o2)O3)nc(N(C)C)c1 [Compound 28H, (S)-5-(2-(6-(6-(dimethylamino)-4-methoxypyridin-2-yl)-4-((3-(trifluoromethyl)phenyl)sulfonyl)-3,4-dihydro-2H-benzo[b][1,4]-oxazin-2-yl)ethyl)-1,3,4-oxadiazol-2(3H)-one]
- EC50 [1]: < 500 nM
- TR-FRET Assay Max Response [1]: **** (The symbol “****” indicates a value greater than 200)
- EC50 [2]: < 500 nM
- Gal4-RORγ Assay Max Response [2]: * (The symbol “*” indicates a value in the range of 25 to 90)

Structure (SMILES): O=c1[nH]nc(CC[C@H]2CN(S(=O)(=O)c3cccc(C(F)(F)F)c3)c3cc(-c4cc(F)cc(F)c4Cl)ccc3O2)o1 [Compound 28I, (S)-5-(2-(6-(2-chloro-3,5-difluorophenyl)-4-((3-(trifluoromethyl)phenyl)sulfonyl)-3,4-dihydro-2H-benzo[b][1,4]oxazin-2-yl)ethyl)-1,3,4-oxadiazol-2(3H)-one]
- EC50 [1]: < 500 nM
- TR-FRET Assay Max Response [1]: **** (The symbol “****” indicates a value greater than 200)
- EC50 [2]: < 500 nM
- Gal4-RORγ Assay Max Response [2]: ** (The symbol “**” indicates a value in the range of greater than 90 to 150)

Structure (SMILES): COc1cc(S(=O)(=O)N2C[C@H](CCc3n[nH]c(=O)o3)Oc3ccc(-c4cc(F)ccc4F)cc32)ccc1F [Compound 28J, (S)-5-(2-(6-(2,5-difluorophenyl)-4-((4-fluoro-3-methoxyphenyl)-sulfonyl)-3,4-dihydro-2H-benzo[b][1,4]oxazin-2-yl)ethyl)-1,3,4-oxadiazol-2(3H)-one]
- EC50 [1]: < 500 nM
- TR-FRET Assay Max Response [1]: **** (The symbol “****” indicates a value greater than 200)
- EC50 [2]: < 500 nM
- Gal4-RORγ Assay Max Response [2]: ** (The symbol “**” indicates a value in the range of greater than 90 to 150)

Structure (SMILES): COc1cc(S(=O)(=O)N2C[C@H](CCc3n[nH]c(=O)o3)Oc3ccc(-c4cccc(C(F)(F)F)n4)cc32)ccc1F [Compound 28K, (S)-5-(2-(4-((4-fluoro-3-methoxyphenyl)sulfonyl)-6-(6-(trifluoromethyl)pyridin-2-yl)-3,4-dihydro-2H-benzo[b][1,4]oxazin-2-yl)ethyl)-1,3,4-oxadiazol-2(3H)-one]
- EC50 [1]: < 500 nM
- TR-FRET Assay Max Response [1]: **** (The symbol “****” indicates a value greater than 200)
- EC50 [2]: < 500 nM
- Gal4-RORγ Assay Max Response [2]: ** (The symbol “**” indicates a value in the range of greater than 90 to 150)

Structure (SMILES): CC(C)(O)C(=O)NCC[C@H]1CN(S(=O)(=O)c2cccc(C(F)(F)F)c2)c2cc(-c3cc(F)ccc3F)ccc2O1 [Compound 29, (S)—N-(2-(6-(2,5-difluorophenyl)-4-((3-(trifluoromethyl)phenyl)sulfonyl)-3,4-dihydro-2H-benzo[b][1,4]oxazin-2-yl)ethyl)-2-hydroxy-2-methylpropanamide]
- EC50 [1]: < 500 nM
- TR-FRET Assay Max Response [1]: **** (The symbol “****” indicates a value greater than 200)
- EC50 [2]: < 500 nM
- Gal4-RORγ Assay Max Response [2]: ** (The symbol “**” indicates a value in the range of greater than 90 to 150)

Structure (SMILES): CN(C)c1cccc(-c2ccc3c(c2)N(S(=O)(=O)c2cccc(C(F)(F)F)c2)C[C@H](CCNC(=O)C(C)(C)O)O3)n1 [Compound 30A, (S)-N-(2-(6-(6-(dimethylamino)-pyridin-2-yl)-4-((3-(trifluoro-methyl)phenyl)sulfonyl)-3,4-dihydro-2H-benzo[b][1,4]-oxazin-2-yl)ethyl)-2-hydroxy-2-methylpropanamide]
- EC50 [1]: < 500 nM
- TR-FRET Assay Max Response [1]: **** (The symbol “****” indicates a value greater than 200)
- EC50 [2]: < 500 nM
- Gal4-RORγ Assay Max Response [2]: * (The symbol “*” indicates a value in the range of 25 to 90)

Structure (SMILES): O=C1CC(C(=O)NC[C@H]2CN(S(=O)(=O)c3cccc(C(F)(F)F)c3)c3cc(-c4cc(F)ccc4F)ccc3O2)C1 [Compound 30AA, (S)-N-((6-(2,5-difluorophenyl)-4-((3-(trifluoromethyl)phenyl)-sulfonyl)-3,4-dihydro-2H-benzo[b][1,4]oxazin-2-yl)methyl)-3-oxocyclobutane-1-carboxamide]
- EC50 [1]: < 500 nM
- TR-FRET Assay Max Response [1]: **** (The symbol “****” indicates a value greater than 200)
- EC50 [2]: < 500 nM
- Gal4-RORγ Assay Max Response [2]: * (The symbol “*” indicates a value in the range of 25 to 90)

Structure (SMILES): O=C(CC1CC1)NC[C@H]1CN(S(=O)(=O)c2cccc(C(F)(F)F)c2)c2cc(-c3cc(F)ccc3F)ccc2O1 [Compound 30AB, (S)-2-cyclopropyl-N-((6-(2,5-difluorophenyl)-4-((3-(trifluoromethyl)phenyl)sulfonyl)-3,4-dihydro-2H-benzo[b][1,4]oxazin-2-yl)methyl)acetamide]
- EC50 [1]: < 500 nM
- TR-FRET Assay Max Response [1]: **** (The symbol “****” indicates a value greater than 200)
- EC50 [2]: < 500 nM
- Gal4-RORγ Assay Max Response [2]: * (The symbol “*” indicates a value in the range of 25 to 90)

Structure (SMILES): O=C(NC[C@H]1CN(S(=O)(=O)c2cccc(C(F)(F)F)c2)c2cc(-c3cc(F)ccc3F)ccc2O1)c1cn[nH]c1 [Compound 30AC, (S)-N-((6-(2,5-difluorophenyl)-4-((3-(trifluoromethyl)phenyl)-sulfonyl)-3,4-dihydro-2H-benzo[b][1,4]oxazin-2-yl)methyl)-1H-pyrazole-4-carboxamide]
- EC50 [1]: < 500 nM
- TR-FRET Assay Max Response [1]: **** (The symbol “****” indicates a value greater than 200)
- EC50 [2]: 500 to 5000 nM
- Gal4-RORγ Assay Max Response [2]: * (The symbol “*” indicates a value in the range of 25 to 90)

Structure (SMILES): O=C(NC[C@H]1CN(S(=O)(=O)c2cccc(C(F)(F)F)c2)c2cc(-c3cc(F)ccc3F)ccc2O1)c1cc[nH]n1 [Compound 30AD, (S)-N-((6-(2,5-difluorophenyl)-4-((3-(trifluoromethyl)phenyl)-sulfonyl)-3,4-dihydro-2H-benzo[b][1,4]oxazin-2-yl)methyl)-1H-pyrazole-3-carboxamide]
- EC50 [1]: < 500 nM
- TR-FRET Assay Max Response [1]: **** (The symbol “****” indicates a value greater than 200)
- EC50 [2]: < 500 nM
- Gal4-RORγ Assay Max Response [2]: * (The symbol “*” indicates a value in the range of 25 to 90)

Structure (SMILES): C[C@H](O)C(=O)NC[C@H]1CN(S(=O)(=O)c2cccc(C(F)(F)F)c2)c2cc(-c3cc(F)ccc3F)ccc2O1 [Compound 30AE, (S)-N-(((S)-6-(2,5-difluoro-phenyl)-4-((3-(trifluoromethyl)-phenyl)sulfonyl)-3,4-dihydro-2H-benzo[b][1,4]oxazin-2-yl)-methyl)-2-hydroxypropanamide]
- EC50 [1]: < 500 nM
- TR-FRET Assay Max Response [1]: *** (The symbol “***” indicates a value in the range of greater than 150 to 200)
- EC50 [2]: < 500 nM
- Gal4-RORγ Assay Max Response [2]: ** (The symbol “**” indicates a value in the range of greater than 90 to 150)
